Like-named read-outs stand apart in the source and are kept apart here.
Tests used:
[1] = kinetic solubility assay; format: physicochemical
[2] = Liver microsomal stability (mouse); format: in vitro ADME
Description: (§1) Incubations of test compound (1 μM initial concentration, n=2) were carried out with pooled hepatic liver microsomes (0.25 mg protein/mL in 0.1 M phosphate buffer pH7.4). NADPH (1 mM) was added to initiate the reactions. The incubations were performed at 37° C. Samples (100 μL) were taken from the incubation at 0, 5, 10, 20 and 40 min and added to 100 μL of acetonitrile containing carbamazepine as analytical internal standard, to terminate the reaction. Samples were centrifuged and the supernatant fractions analyzed using LC-MS/MS.
(§2) For all incubations, the instrument response (i.e. chromatographic peak area or peak height, normalized by internal standard), at each time-point were referenced to the zero time-point samples (as 100%) in order to determine the percentage of compound remaining at that time-point. Plots of the natural logarithm (Ln) of the percent of parent remaining for each compound, versus time, were used to determine the half-life in the incubation of interest.
(§3) Half-life values (t1/2) were calculated from the relationship: t1/2 (min)=−0.693/λ where λ was the slope of the Ln concentration versus time curve.
For incubations in hepatic liver microsomes, the in vitro intrinsic clearance, Clint (μL/min/mg microsomal protein), was calculated using the following formula: […]

[3] = tested on: wild type MDCKII cell line; assay: Permeability in wild type MDCK monolayers; format: in vitro ADME; details: MDCK study; in words
Description: (§4) The MDR1-MDCKII and wild type MDCKII cell lines were cultured in accordance with the guidelines provided by Solvo Biotechnology. Both wild-type MDCK and MDR1-MDCK cells were seeded at a cell density of 2.3×10^5 cells/well into 24-well Transwell plates and cultured for three days to form monolayers. Test compound was loaded into the donor compartments of the Transwell plate (24-well) bearing MDR1-MDCK or wild type MDCK monolayers. Test compound was added to either the apical or basolateral chambers of the Transwell plate assembly at a concentration of 10 μM in Hanks' Balanced Salt Solution containing 25 mM HEPES (pH 7.4). Lucifer Yellow was added to the apical buffer in all wells and its permeation monitored to assess integrity of the cell layer. As Lucifer Yellow (LY) cannot freely permeate lipophilic barriers, a high degree of LY transport indicates poor integrity of the cell layer and wells with LY permeability >100 nm/s are rejected.

[4] = Permeability in wild type MDCK monolayers; format: in vitro ADME; details: dog; wild type MDCK, apical to basolateral, 10 μM, pH 7.4; read-out: MDCK-WT Papp A-B
Description: as §4

[5] = target: T1, human TG2 (Homo sapiens, UniProt P21980); assay: fluorescent screening assay for human TG2; format: biochemical
T1 sequence (P21980 1-687): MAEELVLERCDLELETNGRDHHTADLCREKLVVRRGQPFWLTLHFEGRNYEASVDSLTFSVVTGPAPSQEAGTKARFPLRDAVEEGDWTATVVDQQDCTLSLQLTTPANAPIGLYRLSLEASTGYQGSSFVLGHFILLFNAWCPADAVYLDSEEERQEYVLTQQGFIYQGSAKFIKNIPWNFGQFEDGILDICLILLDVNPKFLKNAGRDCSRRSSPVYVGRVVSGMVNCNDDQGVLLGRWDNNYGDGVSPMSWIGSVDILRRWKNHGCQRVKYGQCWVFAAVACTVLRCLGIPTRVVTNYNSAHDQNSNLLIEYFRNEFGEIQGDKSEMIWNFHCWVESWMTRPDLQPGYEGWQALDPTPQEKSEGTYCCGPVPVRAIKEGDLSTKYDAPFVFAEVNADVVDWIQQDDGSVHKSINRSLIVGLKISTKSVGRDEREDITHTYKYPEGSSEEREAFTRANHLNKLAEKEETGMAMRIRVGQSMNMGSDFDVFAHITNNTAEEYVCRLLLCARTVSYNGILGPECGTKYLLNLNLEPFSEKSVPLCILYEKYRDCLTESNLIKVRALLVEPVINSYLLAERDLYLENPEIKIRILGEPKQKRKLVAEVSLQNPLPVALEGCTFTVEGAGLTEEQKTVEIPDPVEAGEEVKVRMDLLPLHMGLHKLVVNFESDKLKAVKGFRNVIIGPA
Description: The fluorescent screening assay for human TG2 was performed as described herein: Assay conditions were 20 nM TG2, 8 μM N,N-dimethylated Casein (NMC) and 16 μM K×D (used for all transglutaminase assays) in 25 mM Hepes, pH 7.4, 250 mM NaCl, 2 mM MgCl2, 0.5 mM CaCl2, 0.2 mM DTT, 0.05% Pluronic F-127 at 37° C. A time point was taken with a microplate reader (Safire or Ultra, Tecan; ex: 350 nm, em: 535 nm) every 3 minutes for up to 2 hours and the initial linear reaction progress was used to determine the reaction velocity as a measure for enzyme activity. Assay conditions were identical for human TG6 and similar for human TG1 and mouse TG2 apart from enzyme concentration (mTG2 at 5 nM; TG1 at 10 nM) and CaCl2 concentration (0.2 mM for mTG2; 0.05 mM for TG1). Factor XIIIa was activated using 0.1 μg/μl thrombin (Sigma) in 35 mM Tris pH 8.0 for 20 min at 30° C. and the transamidation reaction was performed with 20 nM Factor XIIIa in 50 mM Tris pH 8.0, 1.25 mM CaCl2, 0.05% Pluronic, 0.2 mM DTT. TG3 was activated with 0.02 μg/μl thrombin under the same conditions as Factor XIIIa and assay conditions were 10 nM TG3 in 50 mM Hepes, pH 8, 20 mM CaCl2, 0.2 mM DTT, 0.05% Pluronic F-127.

[6] = Plasma stability (human); format: in vitro ADME; details: pooled plasma
Description: (§5) Incubations of test compound (1 μM initial concentration, n=2) were carried out with pooled plasma or BSA (45 mg/mL in 0.1 M phosphate buffered saline pH 7.4). The incubations were performed at 37° C. Samples (50 μL) were obtained from the incubation at 0, 10, 30, 120, 240, 360 and 1440 min, and added to 150 μL of acetonitrile containing carbamazepine as analytical internal standard to terminate the reaction. Samples were centrifuged and the supernatant fractions analyzed using LC-MS/MS.
as §2, §3

[7] = target: T2, P-glycoprotein (P-gp) (Homo sapiens, UniProt P08183); assay: Effective efflux ratio in MDCK-MDR1; format: in vitro ADME
T2 construct: host or cells: MDCKII (MDR1-MDCKII)
Description: as §4
P-glycoprotein (P-gp) is one of the main efflux transporters in brain; the potential for compound 1 and compound 2 to be effluxed by P-gp was assessed in an MDCK-MDR1 transfected cell line.

[8] = Liver microsomal stability (human); format: in vitro ADME
Description: as §1, §2, §3
For incubations in hepatic liver microsomes, the in vitro intrinsic clearance, Clint (μL/min/mg microsomal protein), was calculated using the following formula:
Clint=(0.693/t1/2 microsomal)*(ml incubation/mg microsomal protein)*(mg microsomal protein/g liver)*(g liver/kg body weight)

[9] = Plasma stability (mouse); format: in vitro ADME; details: pooled plasma
Description: as §5, §2, §3

T2 sequence (P08183 whole entry): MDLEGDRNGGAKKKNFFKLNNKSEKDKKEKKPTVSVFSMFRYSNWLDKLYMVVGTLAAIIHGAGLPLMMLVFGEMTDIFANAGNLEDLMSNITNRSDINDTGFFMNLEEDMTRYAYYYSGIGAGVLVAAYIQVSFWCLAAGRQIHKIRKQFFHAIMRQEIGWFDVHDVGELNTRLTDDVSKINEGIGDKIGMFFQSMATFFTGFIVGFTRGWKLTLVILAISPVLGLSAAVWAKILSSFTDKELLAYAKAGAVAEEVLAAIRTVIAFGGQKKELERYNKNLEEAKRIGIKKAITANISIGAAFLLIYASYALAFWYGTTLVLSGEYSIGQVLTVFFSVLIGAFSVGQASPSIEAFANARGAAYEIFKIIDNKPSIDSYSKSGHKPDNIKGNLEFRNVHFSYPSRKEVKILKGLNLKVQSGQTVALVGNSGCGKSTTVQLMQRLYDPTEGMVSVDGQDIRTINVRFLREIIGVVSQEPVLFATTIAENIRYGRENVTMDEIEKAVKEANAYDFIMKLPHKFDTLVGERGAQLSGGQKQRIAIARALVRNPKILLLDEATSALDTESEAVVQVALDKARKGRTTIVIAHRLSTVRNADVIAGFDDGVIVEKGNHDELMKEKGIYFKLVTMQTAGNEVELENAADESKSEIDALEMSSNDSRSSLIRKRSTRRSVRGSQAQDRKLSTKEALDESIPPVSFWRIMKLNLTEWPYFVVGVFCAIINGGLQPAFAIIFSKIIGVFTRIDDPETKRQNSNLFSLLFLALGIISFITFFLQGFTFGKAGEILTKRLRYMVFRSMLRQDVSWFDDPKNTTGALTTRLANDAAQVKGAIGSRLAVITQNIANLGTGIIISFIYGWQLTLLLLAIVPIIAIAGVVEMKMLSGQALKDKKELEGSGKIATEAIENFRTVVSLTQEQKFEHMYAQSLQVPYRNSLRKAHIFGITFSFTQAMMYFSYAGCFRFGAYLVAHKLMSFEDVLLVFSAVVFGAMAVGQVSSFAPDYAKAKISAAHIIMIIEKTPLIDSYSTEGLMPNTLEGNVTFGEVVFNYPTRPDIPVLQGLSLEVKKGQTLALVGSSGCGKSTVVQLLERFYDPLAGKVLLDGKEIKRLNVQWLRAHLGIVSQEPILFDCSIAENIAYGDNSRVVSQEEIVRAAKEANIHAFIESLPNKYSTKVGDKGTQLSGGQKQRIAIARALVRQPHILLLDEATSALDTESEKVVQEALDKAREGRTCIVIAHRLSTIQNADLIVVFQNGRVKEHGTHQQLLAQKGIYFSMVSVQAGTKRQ

- solubility in a kinetic solubility assay ([1]; in words): good solubility
- Aq. Sol. ([1]; kinetic solubility): 0.06 mg/mL
- metabolic stability in liver microsomal stability testing ([2]; mouse, in words): poor
- microsomal CLint at 1 μM ([2]; pooled liver microsomes, pH 7.4, mouse liver microsomes, 1 μM, 0.25 mg protein/mL, NADPH, read-out: mLM Clint): > 1390 µL/min/mg
- permeability [3]: good permeability
- Papp A→B at 10 μM [4]: 30.3 ×10⁻⁶ cm/s
- IC50 ([5]; Table 7, 20 nM TG2, 37° C., read-out: IC50): < 100 nM
- IC50 ([5]; Table 8, read-out: TG2 IC50): 60 nM
- half-life at 1 μM ([6]; human plasma, 1 μM, 37° C., read-out: Human Plasma T1/2): > 8 h
- half-life at 1 μM ([6]; read-out: half-life in human plasma): > 24 h
- active efflux via P-gp ([7]; MDCK-MDR1 transfected cell line, in words): high active efflux
- MDCK-MDR1 EER ([7]; effective efflux ratio, 10 μM): 7.1
- metabolic stability in liver microsomal stability testing ([8]; human, in words): poor
- microsomal CLint at 1 μM ([8]; pooled liver microsomes, pH 7.4, human liver microsomes, 1 μM, 0.25 mg protein/mL, NADPH, read-out: hLM Clint): > 1390 µL/min/mg
- half-life at 1 μM ([9]; mouse plasma, 1 μM, 37° C., read-out: Mouse Plasma T1/2): > 8 h
- half-life at 1 μM ([9]; read-out: half-life in mouse plasma): > 24 h
Structure (SMILES): C=CC(=O)NCCCC[C@H](NC(=O)Cc1ccccc1)C(=O)N1CCN(c2cccc(C)n2)CC1 [compound 2, N-[(5S)-6-[4-(6-methylpyridin-2-yl)piperazin-1-yl]-6-oxo-5-(2-phenylacetamido)hexyl]prop-2-enamide]
